Starred links: 1 amine or outer side, 2 acyl side, 3 side chain; linkers in the order of their positions; H or OH if unused. Positions of bridges follow the written chain, without caps; N, C: chain ends. Non-standard residues stand in square brackets, D forms with d. Residues, ends and D or L forms follow the SMILES beside them. *: point of attachment. Trp(1-CH2COOH) = N[C@@H](Cc1cn(CC(=O)O)c2ccccc12)C(=O)O; NMePhe(4-COOH) = CN[C@@H](Cc1ccc(C(=O)O)cc1)C(=O)O; X1 = O=C([C@H](Cc1cccc(C(=O)[*:3])c1)N[*:1])[*:2]; Nle(6-morpholino) = N[C@@H](CCCCN1CCOCC1)C(=O)O; Phe(3-COOH) = N[C@@H](Cc1cccc(C(=O)O)c1)C(=O)O; Trp(7-aza) = N[C@@H](Cc1c[nH]c2ncccc12)C(=O)O; NH(CH2CH2O)8Me = COCCOCCOCCOCCOCCOCCOCCOCCN*; NMePhe(3-Cl) = CN[C@@H](Cc1cccc(Cl)c1)C(=O)O; 3Pal(6-NH2) = Nc1ccc(C[C@H](N)C(=O)O)cn1; X2 = COCCOCCOCCOCCOCCOCCOCCOCCNC(=O)C*; NMeY = CN[C@@H](Cc1ccc(O)cc1)C(=O)O; 4Pal = N[C@@H](Cc1ccncc1)C(=O)O; PEG4 = NCCOCCOCCOCCOCCC(=O)O; Carboxymethyl = O=C(O)C*
Biological target: T1, human transferrin receptor (hTfR) (Homo sapiens, UniProt P02786)
T1 construct: made in house
T1 sequence (P02786 89-760 limits assumed): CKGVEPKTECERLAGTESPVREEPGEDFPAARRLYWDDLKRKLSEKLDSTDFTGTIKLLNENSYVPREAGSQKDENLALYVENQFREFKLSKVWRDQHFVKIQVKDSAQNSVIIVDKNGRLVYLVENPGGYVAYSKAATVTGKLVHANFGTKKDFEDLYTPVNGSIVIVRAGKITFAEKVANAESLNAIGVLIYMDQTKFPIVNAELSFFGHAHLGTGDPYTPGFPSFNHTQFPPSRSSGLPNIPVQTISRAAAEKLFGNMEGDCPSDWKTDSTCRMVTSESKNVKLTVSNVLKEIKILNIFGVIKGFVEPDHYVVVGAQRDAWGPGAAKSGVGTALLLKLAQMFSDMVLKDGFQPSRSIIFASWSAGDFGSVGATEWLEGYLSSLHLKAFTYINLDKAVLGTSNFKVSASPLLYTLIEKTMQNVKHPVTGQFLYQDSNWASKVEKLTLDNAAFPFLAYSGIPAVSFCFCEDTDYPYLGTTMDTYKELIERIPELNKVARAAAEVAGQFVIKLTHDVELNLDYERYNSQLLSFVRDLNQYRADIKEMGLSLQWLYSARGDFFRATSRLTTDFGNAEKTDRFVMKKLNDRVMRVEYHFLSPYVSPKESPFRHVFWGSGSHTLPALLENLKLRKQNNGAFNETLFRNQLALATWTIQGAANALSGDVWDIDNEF
Test: Evaluation of molecular interaction between transferrin receptor (hTfR) and peptide using surface plasmon resonance (SPR)
Format: binding
Conditions: peptide with linker, surface plasmon resonance; read-out: SPR (KD class for binding to hTfR)
In short: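 Recombinant hTfR dimer (0.5 μM) immobilized on Ni-loaded NTA chip via EDC/NHS, ethanolamine-capped. Peptides at 5–100 nM in HEPES pH 8.0 buffer with 150 mM NaCl, 0.05% Tween 20, 0.1% BSA, 1.0% DMSO, flowed by single-cycle kinetics; KD from least-squares fit of sensorgrams.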

Kd [nM]	Compound
1 to 100	CC[C@H](C)[C@@H]1NC(=O)[C@H](Cc2ccc(OCC(=O)O)cc2)NC(=O)[C@H](Cc2ccc(N)nc2)NC(=O)[C@H](CC(N)=O)NC(=O)[C@H](Cc2cn(CC(=O)O)c3ccccc23)NC(=O)[C@H](C(C)C)NC(=O)[C@H](Cc2cccc(Cl)c2)N(C)C(=O)[C@H](C(C)C)NC(=O)[C@H](C)NC(=O)CSC[C@@H](C(=O)NCCOCCOCCOCCOCCC(N)=O)NC(=O)[C@H](Cc2ccc(O)cc2)N(C)C(=O)[C@H](Cc2cccc(C(=O)O)c2)NC(=O)[C@H](CCCNC(=N)N)NC(=O)[C@H](CCC(=O)NCCOCCOCCOCCOCCOCCOCCOCCOC)NC(=O)[C@H]([C@@H](C)CC)NC1=O [compound 223] ({CH2CO}-AV[NMePhe(3-Cl)]V[Trp(1-CH2COOH)]N[3Pal(6-NH2)]Y(Carboxymethyl)IIE(NH(CH2CH2O)8Me)R[Phe(3-COOH)][NMeY]C[PEG4]-NH2; thioether N-15)
1 to 100	CC[C@H](C)[C@@H]1NC(=O)[C@H](Cc2ccc(OCC(=O)O)cc2)NC(=O)[C@H](Cc2ccc(N)nc2)NC(=O)[C@H](CC(N)=O)NC(=O)[C@H](Cc2c[nH]c3ncccc23)NC(=O)[C@H](C(C)C)NC(=O)[C@H](Cc2cccc(Cl)c2)N(C)C(=O)[C@H](C(C)C)NC(=O)[C@H](C)NC(=O)CSC[C@@H](C(=O)NCCOCCOCCOCCOCCC(N)=O)NC(=O)[C@H](Cc2ccc(O)cc2)N(C)C(=O)[C@H](Cc2ccncc2)NC(=O)[C@H](CCCNC(=N)N)NC(=O)[C@H](CCC(=O)NCCOCCOCCOCCOCCOCCOCCOCCOC)NC(=O)[C@H]([C@@H](C)CC)NC1=O [compound 224]
< 1	CC[C@H](C)[C@@H]1NC(=O)[C@H](Cc2ccc(OCC(=O)O)cc2)NC(=O)[C@H](Cc2ccc(O)cc2)NC(=O)[C@H](CC(N)=O)NC(=O)[C@H](Cc2c[nH]c3ncccc23)NC(=O)[C@H](C(C)C)NC(=O)[C@H](Cc2cccc(Cl)c2)N(C)C(=O)[C@H](C(C)C)NC(=O)[C@H](C)NC(=O)CSC[C@@H](C(=O)NCCOCCOCCOCCOCCC(N)=O)NC(=O)[C@H](Cc2ccc(O)cc2)N(C)C(=O)[C@H](Cc2cccc(C(=O)O)c2)NC(=O)[C@H](CCCNC(=N)N)NC(=O)[C@H](CCC(N)=O)NC(=O)[C@H]([C@@H](C)CC)NC1=O [compound 225]
1 to 100	CC[C@H](C)[C@@H]1NC(=O)[C@H](Cc2ccc(OCC(=O)NCCOCCOCCOCCOCCOCCOCCOCCOC)cc2)NC(=O)[C@H](Cc2ccc(O)cc2)NC(=O)[C@H](CC(N)=O)NC(=O)[C@H](Cc2c[nH]c3ncccc23)NC(=O)[C@H](C(C)C)NC(=O)[C@H](Cc2cccc(Cl)c2)N(C)C(=O)[C@H](C(C)C)NC(=O)[C@H](C)NC(=O)CSC[C@@H](C(=O)NCCOCCOCCOCCOCCC(N)=O)NC(=O)[C@H](Cc2ccc(C(=O)NCCOCCOCCOCCOCCOCCOCCOCCOC)cc2)N(C)C(=O)[C@H](Cc2cccc(C(=O)NCCOCCOCCOCCOCCOCCOCCOCCOC)c2)NC(=O)[C@H](CCC(N)=O)NC(=O)[C@H](CCC(N)=O)NC(=O)[C@H]([C@@H](C)CC)NC1=O [compound 226] ({CH2CO}-AV[NMePhe(3-Cl)]V[Trp(7-aza)]NYY(X2)IIQQ[X1](NH(CH2CH2O)8Me)[NMePhe(4-COOH)](NH(CH2CH2O)8Me)C[PEG4]-NH2; thioether N-15)
1 to 100	CC[C@H](C)[C@@H]1NC(=O)[C@H](Cc2ccc(OCC(=O)NCCOCCOCCOCCOCCOCCOCCOCCOC)cc2)NC(=O)[C@H](Cc2ccc(O)cc2)NC(=O)[C@H](CC(N)=O)NC(=O)[C@H](Cc2c[nH]c3ncccc23)NC(=O)[C@H](C(C)C)NC(=O)[C@H](Cc2cccc(Cl)c2)N(C)C(=O)[C@H](C(C)C)NC(=O)[C@H](C)NC(=O)CSC[C@@H](C(=O)NCCOCCOCCOCCOCCC(N)=O)NC(=O)[C@H](Cc2ccc(C(=O)NCCOCCOCCOCCOCCOCCOCCOCCOC)cc2)N(C)C(=O)[C@H](Cc2ccncc2)NC(=O)[C@H](CCC(N)=O)NC(=O)[C@H](CCC(N)=O)NC(=O)[C@H]([C@@H](C)CC)NC1=O [compound 227] ({CH2CO}-AV[NMePhe(3-Cl)]V[Trp(7-aza)]NYY(X2)IIQQ[4Pal][NMePhe(4-COOH)](NH(CH2CH2O)8Me)C[PEG4]-NH2; thioether N-15)
1 to 100	CC[C@H](C)[C@@H]1NC(=O)[C@H](Cc2ccc(OC)cc2)NC(=O)[C@H](Cc2ccc(O)cc2)NC(=O)[C@H](CC(N)=O)NC(=O)[C@H](Cc2c[nH]c3ncccc23)NC(=O)[C@H](C(C)C)NC(=O)[C@H](Cc2cccc(Cl)c2)N(C)C(=O)[C@H](C(C)C)NC(=O)[C@H](C)NC(=O)CSC[C@@H](C(=O)NCCOCCOCCOCCOCCC(N)=O)NC(=O)[C@H](Cc2ccc(C(=O)NCCOCCOCCOCCOCCOCCOCCOCCOC)cc2)N(C)C(=O)[C@H](Cc2cccc(C(=O)NCCOCCOCCOCCOCCOCCOCCOCCOC)c2)NC(=O)[C@H](CCC(N)=O)NC(=O)[C@H](CCC(N)=O)NC(=O)[C@H]([C@@H](C)CC)NC1=O [compound 228] ({CH2CO}-AV[NMePhe(3-Cl)]V[Trp(7-aza)]NYY(Me)IIQQ[X1](NH(CH2CH2O)8Me)[NMePhe(4-COOH)](NH(CH2CH2O)8Me)C[PEG4]-NH2; thioether N-15)
1 to 100	CC[C@H](C)[C@@H]1NC(=O)[C@H](Cc2ccc(OCC(=O)NCCOCCOCCOCCOCCOCCOCCOCCOC)cc2)NC(=O)[C@H](Cc2ccc(O)cc2)NC(=O)[C@H](CC(N)=O)NC(=O)[C@H](Cc2c[nH]c3ncccc23)NC(=O)[C@H](C(C)C)NC(=O)[C@H](Cc2cccc(Cl)c2)N(C)C(=O)[C@H](C(C)C)NC(=O)[C@H](C)NC(=O)CSC[C@@H](C(=O)NCCOCCOCCOCCOCCC(N)=O)NC(=O)[C@H](Cc2ccc(O)cc2)N(C)C(=O)[C@H](Cc2cccc(C(=O)NCCOCCOCCOCCOCCOCCOCCOCCOC)c2)NC(=O)[C@H](CCC(N)=O)NC(=O)[C@H](CCC(N)=O)NC(=O)[C@H]([C@@H](C)CC)NC1=O [compound 229] ({CH2CO}-AV[NMePhe(3-Cl)]V[Trp(7-aza)]NYY(X2)IIQQ[X1](NH(CH2CH2O)8Me)[NMeY]C[PEG4]-NH2; thioether N-15)
1 to 100	CC[C@H](C)[C@@H]1NC(=O)[C@H](Cc2ccc(OCC(=O)O)cc2)NC(=O)[C@H](Cc2ccc(O)cc2)NC(=O)[C@H](CC(N)=O)NC(=O)[C@H](Cc2c[nH]c3ncccc23)NC(=O)[C@H](C(C)C)NC(=O)[C@H](Cc2cccc(Cl)c2)N(C)C(=O)[C@H](C(C)C)NC(=O)[C@H](C)NC(=O)CSC[C@@H](C(=O)NCCOCCOCCOCCOCCC(N)=O)NC(=O)[C@H](Cc2ccc(O)cc2)N(C)C(=O)[C@H](Cc2cccc(C(=O)O)c2)NC(=O)[C@H](CCCNC(=N)N)NC(=O)[C@H](CCC(=O)NCCOCCOCCOCCOCCOCCOCCOCCOC)NC(=O)[C@H]([C@@H](C)CC)NC1=O [compound 230]
1 to 100	CC[C@H](C)[C@@H]1NC(=O)[C@H](Cc2ccc(OCC(=O)O)cc2)NC(=O)[C@H](Cc2ccc(O)cc2)NC(=O)[C@H](CC(N)=O)NC(=O)[C@H](Cc2cn(CC(=O)O)c3ccccc23)NC(=O)[C@H](C(C)C)NC(=O)[C@H](Cc2cccc(Cl)c2)N(C)C(=O)[C@H](C(C)C)NC(=O)[C@H](C)NC(=O)CSC[C@@H](C(=O)NCCOCCOCCOCCOCCC(N)=O)NC(=O)[C@H](Cc2ccc(O)cc2)N(C)C(=O)[C@H](Cc2ccncc2)NC(=O)[C@H](CCCNC(=N)N)NC(=O)[C@H](CCC(=O)NCCOCCOCCOCCOCCOCCOCCOCCOC)NC(=O)[C@H]([C@@H](C)CC)NC1=O [compound 231]
100 to 1000	CC[C@H](C)[C@@H]1NC(=O)[C@H](Cc2ccc(OCC(=O)O)cc2)NC(=O)[C@H](Cc2ccc(N)nc2)NC(=O)[C@H](CC(N)=O)NC(=O)[C@H](Cc2c[nH]c3ncccc23)NC(=O)[C@H](C(C)C)NC(=O)[C@H](Cc2cccc(Cl)c2)N(C)C(=O)[C@H](C(C)C)NC(=O)[C@H](C)NC(=O)CSC[C@@H](C(=O)NCCOCCOCCOCCOCCC(N)=O)NC(=O)[C@H](Cc2ccc(O)cc2)N(C)C(=O)[C@H](CCC(=O)NCCOCCOCCOCCOCCOCCOCCOCCOC)NC(=O)[C@H](CCCNC(=N)N)NC(=O)[C@H](CCC(=O)NCCOCCOCCOCCOCCOCCOCCOCCOC)NC(=O)[C@H]([C@@H](C)CC)NC1=O [compound 232] ({CH2CO}-AV[NMePhe(3-Cl)]V[Trp(7-aza)]N[3Pal(6-NH2)]Y(Carboxymethyl)IIE(NH(CH2CH2O)8Me)RE(NH(CH2CH2O)8Me)[NMeY]C[PEG4]-NH2; thioether N-15)
1 to 100	CC[C@H](C)[C@@H]1NC(=O)[C@H](Cc2ccc(OCC(=O)O)cc2)NC(=O)[C@H](Cc2ccc(N)nc2)NC(=O)[C@H](CC(N)=O)NC(=O)[C@H](Cc2c[nH]c3ncccc23)NC(=O)[C@H](C(C)C)NC(=O)[C@H](Cc2cccc(Cl)c2)N(C)C(=O)[C@H](C(C)C)NC(=O)[C@H](C)NC(=O)CSC[C@@H](C(=O)NCCOCCOCCOCCOCCC(N)=O)NC(=O)[C@H](Cc2ccc(O)cc2)N(C)C(=O)[C@H](Cc2cccc(C(=O)O)c2)NC(=O)[C@H](CCCCN2CCOCC2)NC(=O)[C@H](CCC(=O)NCCOCCOCCOCCOCCOCCOCCOCCOC)NC(=O)[C@H]([C@@H](C)CC)NC1=O [compound 233] ({CH2CO}-AV[NMePhe(3-Cl)]V[Trp(7-aza)]N[3Pal(6-NH2)]Y(Carboxymethyl)IIE(NH(CH2CH2O)8Me)[Nle(6-morpholino)][Phe(3-COOH)][NMeY]C[PEG4]-NH2; thioether N-15)
100 to 1000	CC[C@H](C)[C@@H]1NC(=O)[C@H](Cc2ccc(OCC(=O)O)cc2)NC(=O)[C@H](Cc2ccc(O)cc2)NC(=O)[C@H](CC(N)=O)NC(=O)[C@H](Cc2c[nH]c3ncccc23)NC(=O)[C@H](C(C)C)NC(=O)[C@H](Cc2cccc(Cl)c2)N(C)C(=O)[C@H](C(C)C)NC(=O)[C@H](C)NC(=O)CSC[C@@H](C(=O)NCCOCCOCCOCCOCCC(N)=O)NC(=O)[C@H](Cc2ccc(O)cc2)N(C)C(=O)[C@H](CCC(=O)NCCOCCOCCOCCOCCOCCOCCOCCOC)NC(=O)[C@H](CCCCN2CCOCC2)NC(=O)[C@H](CCC(=O)NCCOCCOCCOCCOCCOCCOCCOCCOC)NC(=O)[C@H]([C@@H](C)CC)NC1=O [compound 234] ({CH2CO}-AV[NMePhe(3-Cl)]V[Trp(7-aza)]NYY(Carboxymethyl)IIE(NH(CH2CH2O)8Me)[Nle(6-morpholino)]E(NH(CH2CH2O)8Me)[NMeY]C[PEG4]-NH2; thioether N-15)

Reference: patent US20260116920A1, “HUMAN TRANSFERRIN RECEPTOR BINDING PEPTIDE” (PEPTIDREAM INC., priority 2021, published 2026)
